From patent publication US20250268857A1 (priority 2020, published 2025)
Where “and” joins values, the source holds several entries; their conditions need not be identical. Identical values can stand only once. Like-named read-outs stand apart in the source and are kept apart here.

Assays:
[1] = test system: human influenza viruses and avian influenza viruses with different anti-HN types (H1N1, H1N1 subtype, and H7N7); format: cell-based, influenza virus; settings: zinc gluconate concentration of 7,500 ppm
[2] = format: physicochemical; settings: samples with 2,000 to 30,000 ppm zinc gluconate
From the text: Zinc oxide nanoparticles having a diameter of 50 to 70 nm were dispersed and stirred into an aqueous solution at room temperature while the solution temperature was prevented from exceeding room temperature. The aqueous solution contained 50% of organic acid (gluconic acid in the embodiment) that partially lactonizes when dissolved in water.

[3] = test system: feline caliciviruses; format: cell-based, feline calicivirus
[4] = test system: feline coronavirus (Feline Enteric Coronavirus, WSU 79-1683); assay: Coronavirus inactivation test (titration on Felis catus whole fetus cells); format: cell-based; settings: 7500 ppm aqueous solution of zinc gluconate; in 30 minutes
Description: First, 0.9 ml of 7500 ppm of aqueous solution of zinc gluconate (phosphate buffered saline (PBS) was used for comparison) used as a sample solution and 0.1 ml of feline coronavirus solution (Feline Enteric Coronavirus, WSU 79-1683, 1.3× 10^5 EID50/0.1 ml) were mixed in a vortex mixer and reacted at room temperature (20° C.) for 30 minutes. The mixture solution of the sample and the virus was diluted to 100 times with a 5-times diluted Soybean-Casein Digest Broth with Lecithin & Polysorbate 80 (SCDLP) to stop the reaction and obtain a sample for measuring virus infection values.
Felis catus whole fetus cells used for testing were pre-seeded in 96-well plates and cultured in a CO2 incubator for 4 days. After this, the culture supernatant was removed and replaced with Dulbecco's Modified Eagle's medium containing 1% fetal bovine serum (available from Nissui Pharmaceutical Co., Ltd.).
The wells from which the culture medium had been removed were inoculated with 25 μl of the above sample for measuring virus infection values or with a 10-fold dilution of this in PBS, and the virus was allowed to infect the cells at 37° C. for 1 hour. […] After incubation, the cytopathic effect caused by virus growth was observed under a microscope, and the virus infection titer was calculated by the Reed and Muench method.

[5] = test system: avian influenza virus (A/whistling swan/Shimane/499/83 (H5N3)); format: cell-based; settings: reacted 10 minutes at room temperature (20° C.), sterile distilled water control 7.75
[6] = test system: influenza A virus (Kumamoto/Y5/67 (H2/N2)); set-up: species or system guinea pigs; settings: guinea pig, in vivo

Substance: zinc gluconate
- reduction in infectivity titer [1]: same reduction in infectivity titer
- pH [2]: 3.6
- reduction in infectivity titer [3]: 94%
- titer reduced to (fraction) [4]: 1/100
- Virus Infectivity Titer ([5]; zinc gluconate 2,000 ppm): 6.25 log EID50/0.1 ml
- Virus Infectivity Titer ([5]; zinc gluconate 3,750 ppm): 4.5 log EID50/0.1 ml
- Virus Infectivity Titer ([5]; zinc gluconate 5,000 ppm): 3.5 log EID50/0.1 ml
- Virus Infectivity Titer ([5]; zinc gluconate 7,500 ppm): 2.25 log EID50/0.1 ml
- Virus Infectivity Titer ([5]; zinc gluconate 10,000 ppm): 2.5 log EID50/0.1 ml
- Virus Infectivity Titer ([5]; zinc gluconate 30,000 ppm): 5.75 log EID50/0.1 ml
- Infection rate [6]: 4/10 and 1/10 and 3/10
